This is an account of results in patent US20250243189A1, “HERBICIDAL IMIDAZOLE-CONTAINING COMPOUNDS” (SYNGENTA CROP PROTECTION AG, priority 2022, published 2025).

What all share (format): in vivo
What all share (details): 250 g/ha, evaluated after 13 days, five-point scale

Experiment [1] concerns Setaria faberi (SETFA). As to the kind of experiment: Pre-emergence herbicidal glasshouse test. In a few lines:
(§1)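 Seeds sown in standard soil pots were sprayed 1 day (pre-emergence) or 8 days (post-emergence) after sowing, at 250 g/ha unless otherwise stated, in acetone/water (50:50) with 0.5% Tween 20. Glasshouse at 24/16° C day/night, 14 h light, 65% humidity. Percentage damage scored after 13 days on a five-point scale (5=81-100%; 1=0-20%).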

The subject of experiment [2] is AMAPA. Kind of experiment: Pre-emergence herbicidal glasshouse test.
The subject of experiment [3] is Amaranthus retoflexus (AMARE). Kind of experiment: Pre-emergence herbicidal glasshouse test. In a few lines:
as §1

The subject of experiment [4] is IPOHE. As to the kind of experiment: Pre-emergence herbicidal glasshouse test. In a few lines: as §1
Experiment [5] has as its system Echinochloa crus-galli (ECHCG). Kind of experiment: Pre-emergence herbicidal glasshouse test. In a few lines:
as §1

Experiment [6] deals with Setaria faberi (SETFA). As to the kind of experiment: Post-emergence herbicidal glasshouse test. In a few lines: as §1
The subject of experiment [7] is AMAPA. Kind of experiment: Post-emergence herbicidal glasshouse test.
Experiment [8] deals with Amaranthus retoflexus (AMARE). As to the kind of experiment: Post-emergence herbicidal glasshouse test. In a few lines: as §1
The test system of experiment [9] is IPOHE. Kind of experiment: Post-emergence herbicidal glasshouse test. In a few lines: as §1
Experiment [10] concerns Echinochloa crus-galli (ECHCG). Kind of experiment: Post-emergence herbicidal glasshouse test. In a few lines:
as §1

For the molecule `FC(F)(F)c1cn(Cc2ncc(Cl)cn2)c(-n2cc(Cl)cn2)n1` [Compound 1.065, 5-chloro-2-[[2-(4-chloropyrazol-1-yl)-4-(trifluoromethyl)imidazol-1-yl]methyl]pyrimidine], the “percentage damage caused to the plant, SETFA” value in the experiment on Setaria faberi (SETFA) [1] and in the experiment with Setaria faberi (SETFA) [6] was 2 (2=21-40%) throughout. In addition, the “percentage damage caused to the plant, AMAPA” value was 5 (5=81-100%) in the experiment on AMAPA [2] and 4 (4=61-80%) with AMAPA [7]. Further, the “percentage damage caused to the plant, AMARE” value is on record as 5 (5=81-100%) in experiment [3] and 4 (4=61-80%) in [8]. In addition, the “percentage damage caused to the plant, IPOHE” value is 4 (4=61-80%) with IPOHE [4] and 3 (3=41-60%) in the experiment with IPOHE [9]. Moreover, the results for the “percentage damage caused to the plant, ECHCG” value in [5] and in experiment [10] were 1 (1=0-20%) and 2 (2=21-40%), respectively.
Regarding `FC(F)(F)c1cn(Cc2ncc(Cl)cn2)c(-n2ccc(Cl)n2)n1` [Compound 1.066], the “percentage damage caused to the plant, SETFA” value in the experiment with Setaria faberi (SETFA) [1] is 2 (2=21-40%); with Setaria faberi (SETFA) [6], 1 (1=0-20%). In addition, the results for the “percentage damage caused to the plant, AMAPA” value with AMAPA [2] and in the experiment with AMAPA [7] were 5 (5=81-100%) and 3 (3=41-60%), respectively. For the same molecule, the “percentage damage caused to the plant, AMARE” value in [3] is 5 (5=81-100%); in [8] it was 4 (4=61-80%). Moreover, the “percentage damage caused to the plant, IPOHE” value with IPOHE [4] and with IPOHE [9] was 4 (4=61-80%) each time. The “percentage damage caused to the plant, ECHCG” value in experiment [5] and in experiment [10] was 1 (1=0-20%) each time.
Take `Fc1cnn(-c2nc(C(F)(F)F)cn2Cc2ncc(Cl)cn2)c1` [Compound 1.067]: the “percentage damage caused to the plant, SETFA” value in the experiment with Setaria faberi (SETFA) [1] and in the experiment on Setaria faberi (SETFA) [6] was 1 (1=0-20%) each time. For the same molecule, the “percentage damage caused to the plant, AMAPA” value with AMAPA [2] is reported as 4 (4=61-80%); in the experiment with AMAPA [7], 3 (3=41-60%). Further, the “percentage damage caused to the plant, AMARE” value in experiment [3] was 5 (5=81-100%); in experiment [8], 4 (4=61-80%). For the same molecule, the “percentage damage caused to the plant, IPOHE” value in the experiment with IPOHE [4] and with IPOHE [9] was 2 (2=21-40%) in each case. For the same molecule, the “percentage damage caused to the plant, ECHCG” value in experiment [5] and in experiment [10] was 1 (1=0-20%) in each case.
Regarding `Cc1ccc(-c2nc(C(F)F)cn2Cc2ncc(Cl)cn2)s1` [Compound 1.068], the “percentage damage caused to the plant, SETFA” value in the experiment on Setaria faberi (SETFA) [1] is 4 (4=61-80%); in the experiment on Setaria faberi (SETFA) [6] it was 1 (1=0-20%). The entries for the “percentage damage caused to the plant, AMAPA” value in the experiment on AMAPA [2] and in the experiment with AMAPA [7] were 5 (5=81-100%) and 2 (2=21-40%), respectively. For the same molecule, the “percentage damage caused to the plant, AMARE” value is on record as 5 (5=81-100%) in experiment [3] and 3 (3=41-60%) in experiment [8]. Also, the “percentage damage caused to the plant, IPOHE” value is 4 (4=61-80%) with IPOHE [4] and 1 (1=0-20%) in the experiment on IPOHE [9]. The “percentage damage caused to the plant, ECHCG” value is reported as 3 (3=41-60%) in experiment [5] and 1 (1=0-20%) in [10].
As to `FC(F)(F)c1cn(Cc2ncc(Cl)cn2)c(-c2ccc(Br)s2)n1` [Compound 1.069], the “percentage damage caused to the plant, SETFA” value in the experiment with Setaria faberi (SETFA) [1] and in the experiment on Setaria faberi (SETFA) [6] was 5 (5=81-100%) in each case. Also, the “percentage damage caused to the plant, AMAPA” value with AMAPA [2] and in the experiment with AMAPA [7] was 5 (5=81-100%) throughout. In addition, the “percentage damage caused to the plant, AMARE” value in experiment [3] and in [8] was 5 (5=81-100%) in each case. Further, the “percentage damage caused to the plant, IPOHE” value with IPOHE [4] was 5 (5=81-100%); in the experiment on IPOHE [9] it was 4 (4=61-80%). Moreover, the “percentage damage caused to the plant, ECHCG” value in experiment [5] and in experiment [10] was 5 (5=81-100%) in each case.
As to `FC(F)(F)c1cn(Cc2ncc(Cl)cn2)c(-c2cc(Cl)c(Cl)s2)n1` [Compound 1.070], the “percentage damage caused to the plant, SETFA” value in the experiment on Setaria faberi (SETFA) [1] and in the experiment with Setaria faberi (SETFA) [6] was 5 (5=81-100%) each time. Moreover, the “percentage damage caused to the plant, AMAPA” value in the experiment with AMAPA [2] and with AMAPA [7] was 5 (5=81-100%) each time. Also, the “percentage damage caused to the plant, AMARE” value in [3] and in experiment [8] was 5 (5=81-100%) throughout. Moreover, the “percentage damage caused to the plant, IPOHE” value in the experiment with IPOHE [4] is given as 3 (3=41-60%); with IPOHE [9], 4 (4=61-80%). Further, the “percentage damage caused to the plant, ECHCG” value in experiment [5] and in [10] was 5 (5=81-100%) in each case.
